# Tests used:
# ECL cell = settings: rats; Poynter et al.; cited from earlier work
# [1] = tested on: H. felis-infected INS-GAS mice; assay: Gastric mucosa histological evaluation and scoring; type: in vivo; settings: omeprazole study, 3 months; scale 0 to 4; n = 4
# Description: The insulin-gastrin (INS-GAS) transgenic mice (FVB/N background) have been described previously (Wang, T. C. et al., 2000; Wang T. C. et al., 1993) and were free of specific pathogens. Animals were housed in microisolator, solid-bottomed polycarbonate cages, fed a commercially prepared pelleted diet, and given water ad libitum. One hundred twenty four (124) male INS-GAS mice at 2 or 3 months of age were inoculated with Helicobacter felis (ATCC 49179) as previously described (Wang, T. C. et al., 2000). Infection status was confirmed at 14 weeks and 26 weeks post inoculation by enzyme-linked immunosorbent assay (ELISA) to measure immunoglobulin IgG antibody to H. felis, and by quantitative real-time PCR assays of gastric corpus tissue at necropsy as described below. All experiments were approved by the Institutional Animal Care and Use Committee of University of Massachusetts Medical School.
# Mice in group III were treated orally with the histamine H2 receptor antagonist loxtidine (in drinking water) at a dose of 0.5 g/L, while group IV mice received both drugs. For the 3 months drug study of inhibitory effects on maximal acid secretion, gastric atrophy, hyperplasia and dysplasia, 8 mice were prepared for each group. For the 6 months drug study of inhibitory effects on gastric carcinogenesis, 17 mice were prepared for each group.
# The proton pump inhibitor omeprazole was purchased from Sigma (St. Louis Mo.) and dissolved in dimethylsulfoxide (DMSO)/PEG300, a 1:1 mixture at the concentration of 40 mg/ml, and injected intraperitoneally daily at the dose of […] (=350 micromole/kg) for 3 months. Twenty four (24) mice were divided into four groups. Mice in group A were controls treated with vehicle only, whereas group B mice were treated with omeprazole alone. Group C and D mice were treated with combination of omeprazole and YF476 or loxtidine, respectively.
# At necropsy, linear strips extending from the squamocolumnar junction through the proximal duodenum were fixed in 10% neutral-buffered formalin, paraffin-embedded, cut at 5 microns, and stained with hematoxylin and eosin. Indices of injury in the gastric cardia/corpus and antrum were scored on an ordinal scale from 0 to 4 in increments of 0.5 by a single veterinary pathologist (A.B.R.) blinded to treatment groups. Paraffin-embedded sections were also stained with the Warthin-Starry silver staining method for detection of H.felis as previously described (Fox, J. G. et al., 2003).
# CCK-B = target: T1, CCK-B (Rattus norvegicus, UniProt P30553); settings: reportedly; Lindstrom et al 1999; cited from earlier work
# T1 sequence (P30553 1-452): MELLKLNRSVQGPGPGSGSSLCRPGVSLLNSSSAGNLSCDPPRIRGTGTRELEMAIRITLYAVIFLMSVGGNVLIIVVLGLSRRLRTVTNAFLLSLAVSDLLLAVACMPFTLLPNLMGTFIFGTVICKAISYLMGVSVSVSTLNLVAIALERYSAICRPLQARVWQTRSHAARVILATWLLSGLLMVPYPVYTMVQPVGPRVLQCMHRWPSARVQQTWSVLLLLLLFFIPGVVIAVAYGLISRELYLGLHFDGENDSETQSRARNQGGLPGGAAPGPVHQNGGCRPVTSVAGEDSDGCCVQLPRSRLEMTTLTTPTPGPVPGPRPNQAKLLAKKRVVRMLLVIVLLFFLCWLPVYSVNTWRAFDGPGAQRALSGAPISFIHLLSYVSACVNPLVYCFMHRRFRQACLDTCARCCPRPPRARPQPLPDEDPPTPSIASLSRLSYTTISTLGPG
SMILES,Duration of administration after which ECL cell hyperplasia was seen (ECL cell),Corpus histological score: Atrophy [1],Corpus histological score: Dysplasia [1],Corpus histological score: Hyperplasia [1],Corpus histological score: Inflammation [1],Potency relative to YF476 (CCK-B)
COc1ccc2[nH]c([S+]([O-])Cc3ncc(C)c(OC)c3C)nc2c1 (stereo not drawn) [Omeprazole alone],28 days,3.13 ± 0.25,1.38 ± 0.48,2.75 ± 0.50,1.88 ± 0.63a,
Cc1cccc(NC(=O)N[C@@H]2N=C(c3ccccc3)c3ccccc3N(CC(=O)c3ccccc3C)C2=O)c1 [YM022],,,,,,about 5 times
